Values quoted from earlier work in US8415326B2, “Pharmaceutical composition comprising chito-oligomers” (Genis Ehf., priority 2001, dated 2013).

Key:
[1] = test system: activated macrophages; details: reference [23]
[2] = test system: normal human articular chondrocytes; details: reference [24]
[3] = test system: mesothelial cells and fibroblasts; details: reference [11]

Row | SMILES | effect on nitric oxide (NO) production by activated macrophages [1] | effect on NO production in normal human articular chondrocytes [2] | synthesis of hyaluronan [3]
1 | CC(=O)N[C@H]1[C@H](O[C@H]2[C@H](O)[C@@H](NC(C)=O)[C@H](O[C@H]3[C@H](O)[C@@H](NC(C)=O)C(O)O[C@@H]3CO)O[C@@H]2CO)O[C@H](CO)[C@@H](O[C@@H]2O[C@H](CO)[C@@H](O[C@@H]3O[C@H](CO)[C@@H](O[C@@H]4O[C@H](CO)[C@@H](O)[C@H](O)[C@H]4NC(C)=O)[C@H](O)[C@H]3NC(C)=O)[C@H](O)[C@H]2NC(C)=O)[C@@H]1O (some centres unmarked) [Hexa-N-acetylchitohexaose] | inhibited NO production but with less potency | – | –
2 | CC(=O)N[C@H]1C(O)O[C@H](CO)[C@@H](O)[C@@H]1O (some centres unmarked) [N-acetylglucosamine] | – | inhibit NO production | increases the synthesis of hyaluronan
3 | N[C@H]1C(O)O[C@H](CO)[C@@H](O)[C@@H]1O (some centres unmarked) [glucosamine] | – | inhibit NO production | –
4 | CC(=O)N[C@H]1[C@H](O[C@H]2[C@H](O)[C@@H](NC(C)=O)[C@H](O[C@H]3[C@H](O)[C@@H](NC(C)=O)C(O)O[C@@H]3CO)O[C@@H]2CO)O[C@H](CO)[C@@H](O[C@@H]2O[C@H](CO)[C@@H](O[C@@H]3O[C@H](CO)[C@@H](O)[C@H](O)[C@H]3NC(C)=O)[C@H](O)[C@H]2NC(C)=O)[C@@H]1O (some centres unmarked) [penta-N-acetylchitopentaose] | inhibited NO production but with less potency | – | –
